US20240000872A1, “NOVEL BACTERIOPHAGE THAT LYSES ACINETOBACTER GENUS BACTERIA HAVING RESISTANCE TO ANTIBIOTICS” (priority 2020, published 2024)

System: Acinetobacter baumannii strains
Test: Antibiotic susceptibility test (CLSI disk diffusion test method, read per CLSI 2016)
Assay type: cell-based
Design: antibiotic susceptibility test value / susceptibility test value (number given before S/I/R) / antibiotic susceptibility value: unit not given here
Experimental: (§1) Strain identification was performed using a kit such as AT 32 GN system (bioMérieux, Marcy l'Etoile, France). […] In Table 2 below, S, I, and R are the results obtained by evaluating susceptibility to the antibacterial agents, in which ‘S’ means susceptible, ‘I’ means intermediate, and ‘R’ means resistant.
as §1, with “as ATB” for “as AT”, “system (bioMédrieux,” for “system (bioMérieux,”, “Table 6” for “Table 2”
as §1, with “as ATB” for “as AT”, “Table 10” for “Table 2”, “susceptible, T” for “susceptible, ‘I’”

Substance: colistin
- antibiotic susceptibility class (host strain YMC14/01/C29): S
- antibiotic susceptibility test value (host strain YMC14/01/C29): 0.5
- antibiotic susceptibility class (host strain YMC14/01/IP122): S
- antibiotic susceptibility test value (host strain YMC14/01/IP122): 0.5
- antibiotic susceptibility class (host strain YMC14/01/L8): S
- antibiotic susceptibility test value (host strain YMC14/01/L8): 0.5
- antibiotic susceptibility class (host strain YMC14/01/P31): S
- antibiotic susceptibility test value (host strain YMC14/01/P31): 0.5
- antibiotic susceptibility class (host strain YMC14/01/P117): S
- antibiotic susceptibility test value (host strain YMC14/01/P117): 0.5
- antibiotic susceptibility class (host strain YMC14/01/P224): S
- antibiotic susceptibility test value (host strain YMC14/01/P224): 0.5
- antibiotic susceptibility class (host strain YMC14/01/P727): S
- antibiotic susceptibility test value (host strain YMC14/01/P727): 0.5
- antibiotic susceptibility class (host strain YMC14/01/P728): S
- antibiotic susceptibility test value (host strain YMC14/01/P728): 0.5
- antibiotic susceptibility class (host strain YMC14/01/R130): S
- antibiotic susceptibility test value (host strain YMC14/01/R130): 0.5
- antibiotic susceptibility class (host strain YMC14/01/R160): S
- antibiotic susceptibility test value (host strain YMC14/01/R160): 0.5
- antibiotic susceptibility class (host strain YMC14/01/R198): S
- antibiotic susceptibility test value (host strain YMC14/01/R198): 0.5
- antibiotic susceptibility class (host strain YMC14/01/R257): S
- antibiotic susceptibility test value (host strain YMC14/01/R257): 0.5
- antibiotic susceptibility class (host strain YMC14/01/R270): S
- antibiotic susceptibility test value (host strain YMC14/01/R270): 0.5
- antibiotic susceptibility class (host strain YMC14/01/R324): S
- antibiotic susceptibility test value (host strain YMC14/01/R324): 0.5
- antibiotic susceptibility class (host strain YMC14/01/R443): S
- antibiotic susceptibility test value (host strain YMC14/01/R443): 0.5
- antibiotic susceptibility class (host strain YMC14/01/R451): S
- antibiotic susceptibility test value (host strain YMC14/01/R451): 0.5
- antibiotic susceptibility class (host strain YMC14/01/R560): S
- antibiotic susceptibility test value (host strain YMC14/01/R560): 0.5
- antibiotic susceptibility class (host strain YMC14/01/R617): S
- antibiotic susceptibility test value (host strain YMC14/01/R617): 0.5
- antibiotic susceptibility class (host strain YMC14/01/R671): S
- antibiotic susceptibility test value (host strain YMC14/01/R671): 0.5
- antibiotic susceptibility class (host strain YMC14/01/R732): S
- antibiotic susceptibility test value (host strain YMC14/01/R732): 0.5
- antibiotic susceptibility class (host strain YMC14/01/R767): S
- antibiotic susceptibility test value (host strain YMC14/01/R767): 0.5
- antibiotic susceptibility class (host strain YMC14/01/R904): S
- antibiotic susceptibility test value (host strain YMC14/01/R904): 0.5
- antibiotic susceptibility class (host strain YMC14/01/R905): S
- antibiotic susceptibility test value (host strain YMC14/01/R905): 0.5
- antibiotic susceptibility class (host strain YMC14/01/R921): S
- antibiotic susceptibility test value (host strain YMC14/01/R921): 0.5
- antibiotic susceptibility class (host strain YMC14/01/R941): S
- antibiotic susceptibility test value (host strain YMC14/01/R941): 0.5
- antibiotic susceptibility class (host strain YMC14/01/R958): S
- antibiotic susceptibility test value (host strain YMC14/01/R958): 0.5
- antibiotic susceptibility class (host strain YMC14/01/R1006): S
- antibiotic susceptibility test value (host strain YMC14/01/R1006): 0.5
- antibiotic susceptibility class (host strain YMC14/01/R1199): S
- antibiotic susceptibility test value (host strain YMC14/01/R1199): 0.5
- antibiotic susceptibility class (host strain YMC14/01/R1659): S
- antibiotic susceptibility test value (host strain YMC14/01/R1659): 0.5
- antibiotic susceptibility class (host strain YMC14/01/R1722): S
- antibiotic susceptibility test value (host strain YMC14/01/R1722): 0.5
- antibiotic susceptibility class (host strain YMC14/01/R1752): S
- antibiotic susceptibility test value (host strain YMC14/01/R1752): 0.5
- antibiotic susceptibility class (host strain YMC14/01/R2429): S
- antibiotic susceptibility test value (host strain YMC14/01/R2429): 0.5
- antibiotic susceptibility class (host strain YMC14/01/R2572): S
- antibiotic susceptibility test value (host strain YMC14/01/R2572): 0.5
- antibiotic susceptibility class (host strain YMC14/01/R2855): S
- antibiotic susceptibility test value (host strain YMC14/01/R2855): 0.5
- antibiotic susceptibility class (host strain YMC14/01/R2945): S
- antibiotic susceptibility test value (host strain YMC14/01/R2945): 0.5
- antibiotic susceptibility class (host strain YMC14/01/R3007): S
- antibiotic susceptibility test value (host strain YMC14/01/R3007): 0.5
- antibiotic susceptibility class (host strain YMC14/01/R3129): S
- antibiotic susceptibility test value (host strain YMC14/01/R3129): 0.5
- antibiotic susceptibility class (host strain YMC14/01/R3317): S
- antibiotic susceptibility test value (host strain YMC14/01/R3317): 0.5
- antibiotic susceptibility class (host strain YMC14/01/R3474): S
- antibiotic susceptibility test value (host strain YMC14/01/R3474): 0.5
- antibiotic susceptibility class (host strain YMC14/01/R3574): S
- antibiotic susceptibility test value (host strain YMC14/01/R3574): 0.5
- antibiotic susceptibility class (host strain YMC14/01/U313): S
- antibiotic susceptibility test value (host strain YMC14/01/U313): 0.5
- antibiotic susceptibility class (host strain YMC14/01/U318): S
- antibiotic susceptibility test value (host strain YMC14/01/U318): 0.5
- antibiotic susceptibility class (host strain YMC14/02/L18): S
- antibiotic susceptibility test value (host strain YMC14/02/L18): 0.5
- antibiotic susceptibility class (host strain YMC14/02/P47): S
- antibiotic susceptibility test value (host strain YMC14/02/P47): 0.5
- antibiotic susceptibility class (host strain YMC14/02/R1860): S
- antibiotic susceptibility test value (host strain YMC14/02/R1860): 0.5
- antibiotic susceptibility class (host strain YMC14/02/R2417): S
- antibiotic susceptibility test value (host strain YMC14/02/R2417): 0.5
- antibiotic susceptibility class (host strain YMC14/02/R2599): S
- antibiotic susceptibility test value (host strain YMC14/02/R2599): 0.5
- antibiotic susceptibility class (host strain YMC14/02/R2668): S
- antibiotic susceptibility test value (host strain YMC14/02/R2668): 0.5
- antibiotic susceptibility class (host strain YMC14/02/R2758): S
- antibiotic susceptibility test value (host strain YMC14/02/R2758): 0.5
- antibiotic susceptibility class (host strain YMC14/02/R2781): S
- antibiotic susceptibility test value (host strain YMC14/02/R2781): 0.5
- antibiotic susceptibility class (host strain YMC14/02/R3106): S
- antibiotic susceptibility test value (host strain YMC14/02/R3106): 0.5
- antibiotic susceptibility class (host strain YMC14/02/R3419): S
- antibiotic susceptibility test value (host strain YMC14/02/R3419): 0.5
- antibiotic susceptibility class (host strain YMC14/02/U1607): S
- antibiotic susceptibility test value (host strain YMC14/02/U1607): 0.5
- antibiotic susceptibility class (host strain YMC14/03/L9): S
- antibiotic susceptibility test value (host strain YMC14/03/L9): 0.5
- antibiotic susceptibility class (host strain YMC14/03/P471): S
- antibiotic susceptibility test value (host strain YMC14/03/P471): 0.5
- antibiotic susceptibility class (host strain YMC14/03/R122): S
- antibiotic susceptibility test value (host strain YMC14/03/R122): 0.5
- antibiotic susceptibility class (host strain YMC14/03/R217): S
- antibiotic susceptibility test value (host strain YMC14/03/R217): 0.5
- antibiotic susceptibility class (host strain YMC14/03/R380): S
- antibiotic susceptibility test value (host strain YMC14/03/R380): 0.5
- antibiotic susceptibility class (host strain YMC14/03/R618): S
- antibiotic susceptibility test value (host strain YMC14/03/R618): 0.5
- antibiotic susceptibility class (host strain YMC14/03/R2144): S
- antibiotic susceptibility test value (host strain YMC14/03/R2144): 0.5
- antibiotic susceptibility class (host strain YMC14/03/U4616): S
- antibiotic susceptibility test value (host strain YMC14/03/U4616): 0.5
- antibiotic susceptibility class (host strain YMC14/04/R1078): S
- antibiotic susceptibility test value (host strain YMC14/04/R1078): 0.5
- antibiotic susceptibility class (host strain YMC14/04/R1080): S
- antibiotic susceptibility test value (host strain YMC14/04/R1080): 0.5
- antibiotic susceptibility S/I/R (host strain YMC14/06/R2359): R
- antibiotic susceptibility value (host strain YMC14/06/R2359): 16
- susceptibility category (S/I/R) (host strain YMC14/06/R2359): R
- susceptibility test value (number given before S/I/R) (host strain YMC14/06/R2359): 16
- antibiotic susceptibility S/I/R (host strain YMC14/08/R1169): R
- antibiotic susceptibility value (host strain YMC14/08/R1169): 16
- susceptibility category (S/I/R) (host strain YMC14/08/R1169): R
- susceptibility test value (number given before S/I/R) (host strain YMC14/08/R1169): 16
- antibiotic susceptibility S/I/R (host strain YMC14/08/T90): R
- antibiotic susceptibility value (host strain YMC14/08/T90): 16
- susceptibility category (S/I/R) (host strain YMC14/08/T90): R
- susceptibility test value (number given before S/I/R) (host strain YMC14/08/T90): 16
- antibiotic susceptibility S/I/R (host strain YMC15/02/R436): R
- antibiotic susceptibility value (host strain YMC15/02/R436): 8
- susceptibility category (S/I/R) (host strain YMC15/02/R436): R
- susceptibility test value (number given before S/I/R) (host strain YMC15/02/R436): 8
- antibiotic susceptibility S/I/R (host strain YMC15/02/T28): R
- antibiotic susceptibility value (host strain YMC15/02/T28): 16
- susceptibility category (S/I/R) (host strain YMC15/02/T28): R
- susceptibility test value (number given before S/I/R) (host strain YMC15/02/T28): 16
- antibiotic susceptibility S/I/R (host strain YMC15/03/R1604): R
- antibiotic susceptibility value (host strain YMC15/03/R1604): 16
- susceptibility category (S/I/R) (host strain YMC15/03/R1604): R
- susceptibility test value (number given before S/I/R) (host strain YMC15/03/R1604): 16
- antibiotic susceptibility S/I/R (host strain YMC15/09/R1869): R
- antibiotic susceptibility value (host strain YMC15/09/R1869): 16
- susceptibility category (S/I/R) (host strain YMC15/09/R1869): R
- susceptibility test value (number given before S/I/R) (host strain YMC15/09/R1869): 16
- antibiotic susceptibility S/I/R (host strain YMC16/01/P11): S
- antibiotic susceptibility value (host strain YMC16/01/P11): 0.5
- susceptibility category (S/I/R) (host strain YMC16/01/P11): S
- susceptibility test value (number given before S/I/R) (host strain YMC16/01/P11): 0.5
- antibiotic susceptibility S/I/R (host strain YMC16/01/R123): S
- antibiotic susceptibility value (host strain YMC16/01/R123): 0.5
- susceptibility category (S/I/R) (host strain YMC16/01/R123): S
- susceptibility test value (number given before S/I/R) (host strain YMC16/01/R123): 0.5
- antibiotic susceptibility S/I/R (host strain YMC16/01/R198): S
- antibiotic susceptibility value (host strain YMC16/01/R198): 0.5
- susceptibility category (S/I/R) (host strain YMC16/01/R198): S
- susceptibility test value (number given before S/I/R) (host strain YMC16/01/R198): 0.5
- antibiotic susceptibility S/I/R (host strain YMC16/01/R353): S
